Test results taken from patent US8431563B2 (priority 2010, dated 2013).
Where two headings read alike, the source gives them in different places.

Legend:
[1] = molecular target: T1, GKRP (Glucokinase Regulatory Protein) with human His-hepatic GK (Homo sapiens, UniProt Q14397); experiment: GKRP NADPH Coupled Assay; format: biochemical; details: GK-GKRP EC50 (NADPH-coupled), indirect measure of glucose-6-phosphate, fluorescence; 1 μM GKRP (10×), 20 nM GK (5×)
T1 sequence (Q14397 1-625): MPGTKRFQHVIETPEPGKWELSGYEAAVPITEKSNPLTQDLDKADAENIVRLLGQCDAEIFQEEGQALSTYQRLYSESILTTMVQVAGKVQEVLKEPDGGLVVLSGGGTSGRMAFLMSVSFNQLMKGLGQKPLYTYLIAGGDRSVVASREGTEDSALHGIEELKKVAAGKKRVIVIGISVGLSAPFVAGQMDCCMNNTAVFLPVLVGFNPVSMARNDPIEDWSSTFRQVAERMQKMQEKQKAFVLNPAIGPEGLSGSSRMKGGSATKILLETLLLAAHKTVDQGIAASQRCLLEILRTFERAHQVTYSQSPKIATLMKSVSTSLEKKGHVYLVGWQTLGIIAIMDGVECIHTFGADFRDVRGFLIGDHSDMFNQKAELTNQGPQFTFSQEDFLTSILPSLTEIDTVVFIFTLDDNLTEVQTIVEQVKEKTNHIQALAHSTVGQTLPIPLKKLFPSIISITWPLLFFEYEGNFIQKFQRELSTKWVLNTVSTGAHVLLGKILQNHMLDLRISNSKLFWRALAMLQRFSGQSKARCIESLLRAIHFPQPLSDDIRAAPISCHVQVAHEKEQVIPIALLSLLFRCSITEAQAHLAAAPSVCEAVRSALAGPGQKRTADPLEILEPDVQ
Experimental: This assay is used to directly measure the formation of ^13C-glucose-6-phosphate from ^13C-glucose by liquid chromatography-mass spectrometry (LC MS/MS). Begin by preparing the following solutions: Compound Buffer (CB): 50 mM Tris, pH 7.5/4 mM MgCl2/6% DMSO/fresh 10 mM DTT from 1M frozen stock. Enzyme Buffer (EB): 50 mM Tris, pH 7.5/4 mM MgCl2/6% DMSO/fresh 0.1% BSA/fresh 0.01% Brij-35 (10% BSA and 1% Brij-35 stock). GK (Glucokinase) Working Stock (5×): Dilute human His-hepatic GK to 30 nM in EB buffer. […] After 30 minutes add 10 μl of GK Working Stock (5×). Re-seal the plate and incubate for another 30 minutes at room temperature while mixing. After the second 30 minutes, stop the reaction by the addition of 50 μl of 100% acetonitrile, seal, and mix for 5-10 minutes. Run 10 μl of this sample through the LC MS/MS (API 3200, Applied Biosystems Inc., Carlsbad, Calif.).
This assay is used as an indirect measure of glucose-6-phosphate (G6P) formed from glucose due to the enzymatic activity of glucokinase. Assay format is the same as for GKRP LC MS/MS Biochemical Assay with the following exceptions. GK Working Stock (5×): Dilute human His-hepatic GK to 20 nM in EB buffer. Stop & Detection Reagent (2×): Dilute β-nicotinamide adenine dinucleotide phosphate sodium salt (β-NADP) (Aldrich-Sigma, St. Louis, Mo.) to 2 mM from 100 mM stock (stock in 10 mM Tris, pH 9.2) and dilute glucose-6-phosphate dehydrogenase (Aldrich-Sigma, St. Louis, Mo.) to 0.04 Unit/μl from 10 Unit/μl (stock in 10 mM Tris pH 7.5/0.05% Brij-35) in 0.2 M Tris, pH 9.2/8% DMSO. After the initial 30 minute incubation add 10 μl of 20 nM GK diluted in EB (5×). Re-seal the plate and incubate for another 1 hour at room temperature while mixing. After 1 hour remove the seal and add 50 μl of Stop & Detection Reagent and incubate for 5 minutes at room temperature while mixing.

[2] = molecular target: T1, GKRP (Glucokinase Regulatory Protein) with human His-hepatic GK; experiment: biochemical
In short: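 Human His-tagged hepatic GK (30 nM in the 5× working stock) in 50 mM Tris pH 7.5, 4 mM MgCl2, 6% DMSO with DTT, BSA and Brij-35. Enzyme was added after a 30 min step and reacted 30 min at room temperature. The reaction was stopped with acetonitrile and 13C-glucose-6-phosphate formed from 13C-glucose was quantified by LC MS/MS.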

[3] = molecular target: T2, interaction between glucokinase (GK) and glucokinase regulatory protein (GKRP) (Homo sapiens, UniProt Q14397); experiment: biochemical; format: binding
T2 sequence (Q14397 1-625): T1 sequence (Q14397 1-625)
In short: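 Avi-tagged human GKRP preincubated with compound for 20 min at room temperature, then 6 nM GK-fluorescein (concentration of added solution) introduced and incubated 2 h in the dark. Buffer: 20 mM Tris pH 7.5, 0.05% BSA, 1 mM DTT, 1 μM sorbitol-6-phosphate. Plate read on a fluorescence reader.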

[4] = 13C-glucose-6-phosphate formation, 280 nM GKRP (10×), 30 nM GK (5×), read-out: GK-GKRP EC50 (LC MS/MS-2)
[5] = avi-tagged GKRP, GK-fluorescein, AlphaScreen beads, read-out: GK-GKRP IC50 (Binding)

| Compound | EC50 [1] | EC50 [2, 4] | IC50 [3, 5] | other results |
| --- | --- | --- | --- | --- |
| CC(O)(c1ccc(N2CCN(S(=O)(=O)c3cccs3)CC2CC2CCOCC2)cc1)C(F)(F)F (single isomer, unassigned) [Example 37 Peak #3, 1,1,1-trifluoro-2-(4-(2-(tetrahydro-2H-pyran-4-ylmethyl)-4-(2-thiophenylsulfonyl)-1-piperazinyl)phenyl)-2-propanol] | 13000 nM |  |  |  |
| C[C@H]1COCCN1CC1CN(S(=O)(=O)c2cccs2)CCN1c1ccc(C(C)(O)C(F)(F)F)cc1 (single isomer, unassigned) [Example 45 Peak #3] | 15100 nM |  |  |  |
| CC(O)(c1ccc(N2CCN(S(=O)(=O)c3cccs3)CC2CN2CC[C@@H](O)C2)cc1)C(F)(F)F (mixture of isomers) [Example 56, (3R)-1-((4-(2-thiophenylsulfonyl)-1-(4-(2,2,2-trifluoro-1-hydroxy-1-methylethyl)phenyl)-2-piperazinyl)methyl)-3-pyrrolidinol] | 3500 nM |  |  |  |
| CC(O)(c1ccc(N2CCN(S(=O)(=O)c3cccs3)CC2CC2CCOCC2)cc1)C(F)(F)F (single isomer, unassigned) [Example 37 Peak #4, 1,1,1-trifluoro-2-(4-(2-(tetrahydro-2H-pyran-4-ylmethyl)-4-(2-thiophenylsulfonyl)-1-piperazinyl)phenyl)-2-propanol] | > 50000 nM |  |  |  |
| CC(O)(c1ccc(N2CCN(S(=O)(=O)c3cccs3)C[C@@H]2Cn2ccnc2)cc1)C(F)(F)F (mixture of isomers) [Example 170, 2-(4-((S)-2-((1H-imidazol-1-yl)methyl)-4-(thiophen-2-ylsulfonyl)piperazin-1-yl)phenyl)-1,1,1-trifluoro-2-propanol] | 762 nM | 942 nM |  |  |
| C[C@H]1CN(S(=O)(=O)c2ccoc2)CCN1c1ccc(C(C)(O)C(F)(F)F)cc1 (stereo partly drawn) [Example 30, 1,1,1-trifluoro-2-(4-((2S)-4-(3-furanylsulfonyl)-2-methyl-1-piperazinyl)phenyl)-2-propanol] | 3120 nM |  |  |  |
| O=S(=O)(c1cccs1)N1CCN(c2ccc(C(O)(C(F)(F)F)C(F)(F)F)cc2)C[C@H]1C1CC1 [Example 14, 2-(4-((3R)-3-cyclopropyl-4-(2-thiophenylsulfonyl)-1-piperazinyl)phenyl)-1,1,1,3,3,3-hexafluoro-2-propanol] | 5000 nM |  |  |  |
| O=S(=O)(c1cccs1)N1CCN(c2ccc(C(O)(C(F)(F)F)C(F)(F)F)cc2)C(Cc2cccc(O)c2)C1 (racemic) [Example 176, 3-((1-(4-(1,1,1,3,3,3-hexafluoro-2-hydroxypropan-2-yl)phenyl)-4-(thiophen-2-ylsulfonyl)piperazin-2-yl)methyl)phenol] | 1810 nM |  |  |  |
| CC(O)(c1ccc(N2CCN(S(=O)(=O)c3cccs3)C[C@@H]2CN2C3COCC2C(O)C3)cc1)C(F)(F)F (single isomer, unassigned) [Example 78 Peak #1] |  | 146 nM | 44 nM |  |
| COCC#Cc1cc(C(O)(C(F)(F)F)C(F)(F)F)ccc1N1CCN(S(=O)(=O)c2cccs2)CC1 [Example 153, 1,1,1,3,3,3-hexafluoro-2-(3-(3-methoxyprop-1-YNYL)-4-(4-(thiophen-2-ylsulfonyl)piperazin-1-yl)phenyl)propan-2-ol] |  | 675 nM | 363 nM |  |
| CC(O)(c1ccc(N2CCN(S(=O)(=O)c3cccs3)C[C@@H]2CN2C3COCC2C(O)C3)cc1)C(F)(F)F (single isomer, unassigned) [Example 78 Peak #2] |  | 60 nM | 49 nM |  |
| O=S(=O)(c1cccs1)N1CCN(c2ncc(C(O)(C(F)(F)F)C(F)(F)F)cn2)[C@@H](CN2C3COCC2C(O)C3)C1 (single isomer, unassigned) [Example 79 Peak #1] |  | 50 nM | 49 nM |  |
| CC(O)(c1ccc(N2CCN(S(=O)(=O)c3cccs3)C[C@@H]2CN2C[C@H]3COC[C@H]3C2)cc1)C(F)(F)F (stereo partly drawn) [Example 123, 1,1,1-trifluoro-2-(4-((2S)-2-((3aR,6aS)-tetrahydro-1H-furo[3,4-c]pyrrol-5(3H)-ylmethyl)-4-(2-thiophenylsulfonyl)-1-piperazinyl)phenyl)-2-propanol] |  |  |  | IC50 ([3]; GK-GKRP IC50 (Binding)): 671 nM; EC50 ([2]; GK-GKRP EC50 (LC MS/MS-2)): 731 nM |
| CC1(O)C[C@H]2COC[C@@H](C1)N2C[C@H]1CN(S(=O)(=O)c2cccs2)CCN1c1ccc(C(C)(O)C(F)(F)F)cc1 (stereo partly drawn) [Example 108, (1R,5S)-7-methyl-9-(((2S)-4-(2-thiophenylsulfonyl)-1-(4-(2,2,2-trifluoro-1-hydroxy-1-methylethyl)phenyl)-2-piperazinyl)methyl)-3-oxa-9-azabicyclo[3.3.1]nonan-7-ol (endo)] |  | 45 nM | 27 nM |  |
| CC(C)C1C(=O)NCCN1C[C@H]1CN(S(=O)(=O)c2cccs2)CCN1c1ccc(C(C)(O)C(F)(F)F)cc1 (single isomer, unassigned) [Example 181 Peak #1] |  | 63 nM | 43 nM |  |
| CC(O)(c1ccc(N2CCN(S(=O)(=O)c3cccs3)C[C@@H]2COCC2CCCO2)cc1)C(F)(F)F (mixture of isomers) [Example 118, 1,1,1-trifluoro-2-(4-((2R)-2-((tetrahydro-2-furanylmethoxy)methyl)-4-(2-thiophenylsulfonyl)-1-piperazinyl)phenyl)-2-propanol] |  | 1110 nM | 570 nM |  |
| C[C@H]1CN(S(=O)(=O)c2nccs2)CCN1c1ccc(C(C)(O)C(F)(F)F)cc1 (single isomer, unassigned) [Example 34 Peak #1] | 2500 nM |  |  |  |
| CC(O)(c1ccc(N2CCN(S(=O)(=O)c3cccs3)C[C@@H]2CNC2CCOCC2)cc1)C(F)(F)F (mixture of isomers) [Example 120, 1,1,1-trifluoro-2-(4-((2S)-2-((tetrahydro-2H-pyran-4-ylamino)methyl)-4-(2-thiophenylsulfonyl)-1-piperazinyl)phenyl)-2-propanol] |  |  | 493 nM | EC50 ([2]; GK-GKRP EC50 (LC MS/MS-2), 13C-glucose-6-phosphate formation, 280 nM GKRP (10×), 30 nM GK (5×)): 656 nM |
| CC(O)(c1ccc(N2CCN(S(=O)(=O)c3cccs3)C[C@@H]2CN(Cc2ccccc2)S(C)(=O)=O)cc1)C(F)(F)F (mixture of isomers) [Example 220, N-benzyl-N-(((2S)-4-(2-thiophenylsulfonyl)-1-(4-(2,2,2-trifluoro-1-hydroxy-1-methylethyl)phenyl)-2-piperazinyl)methyl)methanesulfonamide] |  | 15 nM | 3 nM |  |
| CC1(C)C(=O)NCCN1C[C@H]1CN(S(=O)(=O)c2cccs2)CCN1c1ncc(C(O)(C(F)(F)F)C(F)(F)F)cn1 [Example 226, 3,3-dimethyl-4-(((2S)-4-(2-thiophenylsulfonyl)-1-(5-(2,2,2-trifluoro-1-hydroxy-1-(trifluoromethyl)ethyl)-2-pyrimidinyl)-2-piperazinyl)methyl)-2-piperazinone] |  | 14 nM | 6 nM |  |
